{"source": "paper PMC6669827", "about": "(Toxins, 2019)", "origin": "cited, not measured here", "system": "rat α9α10 nAChR", "conditions": "cited from earlier work", "data": [{"substance": "Vc1.1", "values": [{"measurement": "affinity for rat versus human α9/α10 (in words)", "result": "the affinity is higher for the rat subtypes"}]}]}
